Measured values taken from publication PMC8041284, “Tunable Methacrylamides for Covalent Ligand Directed Release Chemistry” (Journal of the American Chemical Society, 2021).
Where a SMILES comes first, the peptide text is derived from it. [ ]: non-standard residue; d: D form. The star is where a group is joined. Nle = CCCC[C@H](N)C(=O)O; Cbz = O=C(OCc1ccccc1)*; CH2F = FC*

What follows are compounds tested against BTK (Homo sapiens, UniProt Q06187) (assay: biochemical). Conditions: read-out: BTK inhibition (%).
Sequence of BTK (Q06187 402-655 limits assumed): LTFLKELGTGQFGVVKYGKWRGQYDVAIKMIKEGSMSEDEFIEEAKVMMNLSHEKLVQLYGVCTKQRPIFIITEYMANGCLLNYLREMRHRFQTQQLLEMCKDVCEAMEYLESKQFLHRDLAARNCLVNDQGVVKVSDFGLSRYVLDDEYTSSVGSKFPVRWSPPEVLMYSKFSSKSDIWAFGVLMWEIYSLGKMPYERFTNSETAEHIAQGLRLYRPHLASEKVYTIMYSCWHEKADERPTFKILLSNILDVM

Row | Compound | inhibition at 10 µM [%]
1 | C[C@@]12N[C@@H](Cc3ccccc31)c1ccccc12 [PCM-0086525] | -25.7

Same assay, conditions: read-out: BTK inhibition (%), 0.75 uM BTK, […] probe 3l, 15 min preincubation

Row | Compound | inhibition at 10 µM [%]
2 | CCCN(CCC)CCc1cccc2c1CC(=O)N2 [PCM-0065591] | -18.7
3 | CC(C)=CC(O)C/C(C)=C/COc1c2ccoc2cc2oc(=O)ccc12 (centres unmarked) [PCM-0216460] | -45.6
4 | CNC(=O)c1ccccc1Nc1nc(Nc2ccc(N3CCOCC3)cc2OC)ncc1Cl [PCM-0095447] | 67.6
5 | N#Cc1cc2cc(CN3CCC(Nc4ncnc5sc(CC(F)(F)F)cc45)CC3)ccc2[nH]1 [PCM-0215651] | 78
6 | Ac-PHSCN-NH2 [PCM-0215851] | -5.1
7 | C[C@@H](Nc1nc(N[C@H](C)C(F)(F)F)nc(-c2cccc(Cl)n2)n1)C(F)(F)F [PCM-0215864] | -3.9
8 | O=C1c2c(O)cc(O)cc2O[C@H](c2ccc(O)c(O)c2)[C@H]1O [PCM-0087882] | 11
9 | CCOc1cc(CC(=O)N[C@@H](CC(C)C)c2ccccc2N2CCCCC2)ccc1C(=O)O [PCM-0086171] | 17.1
10 | CCCC(=O)NCCc1csc(-c2ccc(Cl)cc2)n1 [PCM-0215869] | 2.3
11 | Cc1ccc(C=C2C(=O)C3(C)CCC2C3(C)C)cc1 (centres unmarked) [PCM-0214882] | 5.4
12 | CNC1CCC(N(Cc2cccc(-c3ccncc3)c2)C(=O)c2sc3ccccc3c2Cl)CC1 (centres unmarked) [PCM-0215509] | -8.5
13 | CCCC[S+]([O-])c1sc2nc(-c3cccs3)cc(-c3ccccc3)c2c1N (centres unmarked) [PCM-0215569] | 0.8
14 | CNCCC(Oc1ccc(C(F)(F)F)cc1)c1ccccc1 (centres unmarked) [PCM-0065327] | -7.8
15 | Fc1ccc(CNc2ncnc3ccc(F)cc23)cc1 [PCM-0215554] | -17
16 | COc1ccc(S(=O)(=O)Nc2cc(-c3c(O)ccc4ccccc34)c(O)c3ccccc23)cc1 [PCM-0215905] | 86.5
17 | C[C@H](CCC(=O)O)[C@H]1CC[C@H]2[C@@H]3C[C@H](O)[C@@H]4C[C@H](O)CC[C@]4(C)[C@H]3CC[C@]12C [PCM-0214678] | 3.9
18 | O=C(Nc1ccccc1)c1cc([N+](=O)[O-])ccc1Cl [PCM-0065623] | 0.8
19 | CN(C)C(=O)COC(=O)Cc1ccc(OC(=O)c2ccc(N=C(N)N)cc2)cc1 [PCM-0095541] | -6.2
20 | CC1(C)CC(=O)c2c(C(F)(F)F)nn(-c3ccc(C(N)=O)c(NC4CCC(OC(=O)CN)CC4)c3)c2C1 (centres unmarked) [PCM-0214703] | 1.6
21 | O=C(CCCN1CCC(O)(c2ccc(Cl)cc2)CC1)c1ccc(F)cc1 [PCM-0065124] | -12.5
22 | CCOc1ccc2ccccc2c1C(=O)N[C@@H]1C(=O)N2[C@@H]1SC(C)(C)[C@@H]2C(=O)O [PCM-0214744] | -11.7
23 | O=C1C(=Cc2ccncc2)CCCC1=Cc1ccncc1 [PCM-0216087] | -4.1
24 | CCOC(=O)N1CCN(c2ccc(OC[C@H]3CO[C@](Cn4ccnc4)(c4ccc(Cl)cc4Cl)O3)cc2)CC1 [PCM-0216072] | 8.5
25 | Cc1[nH]c(=O)c(C#N)cc1-c1ccncc1 [PCM-0065386] | -9.3
26 | COc1cc2oc(=O)ccc2c(OC)c1C[C@@H](O)C(C)(C)O [PCM-0216455] | -13.1
27 | CC(C)C12CCC(C)(CC1)O2 [PCM-0216156] | 23.9
28 | Cn1cc(-c2ccc3c(c2)CCN3C(=O)Cc2cccc(C(F)(F)F)c2)c2c(N)ncnc21 [PCM-0095812] | 40

Row | Compound | inhibition at 10 µM [%]
29 | CC(C)C[C@H](NC(=O)CNC(=O)c1cc(Cl)ccc1Cl)B(O)O [PCM-0095224] | 5.4
30 | CC(C)c1cc2c(N3CCN(C4=NCC(C)(C)S4)CC3)ncnc2s1 [PCM-0215379] | -7.7
31 | O=c1n(CCCN2CCN(c3cccc(Cl)c3)CC2)nc2ccccn12 [PCM-0064865] | -0.9
32 | Cc1[nH]cnc1CN1CCc2c(c3ccccc3n2C)C1=O [PCM-0215666] | -3.4
33 | CN1CC[C@@H](NC(=O)Nc2ccc(C#N)cc2)C[C@@H]1c1nc2ccccc2[nH]1 [PCM-0215365] | -3.9
34 | COc1ccc(CCC(=O)c2c(O)cc(O[C@@H]3O[C@H](CO)[C@@H](O)[C@H](O)[C@H]3O[C@@H]3O[C@@H](C)[C@H](O)[C@@H](O)[C@H]3O)cc2O)cc1O [PCM-0094869] | 9.3
35 | N#CC(C#N)=Cc1ccc(O)c(O)c1 [PCM-0064867] | 54.5
36 | Nc1nc(Cl)nc2c1ncn2[C@@H]1O[C@H](CO)[C@@H](O)[C@@H]1F [PCM-0094949] | 1.4
37 | Cc1cccc(Cc2cnc[nH]2)c1C [PCM-0095257] | -20.2
38 | O=C(CCN1CCN(C(=O)OCc2cc(Cl)cc(Cl)c2)CC1)c1ccc2[nH]c(=O)oc2c1 [PCM-0215647] | -4.6
39 | Cc1cc(=O)oc2c([N+](=O)[O-])c(O)ccc12 [PCM-0216627] | 13.1
40 | COCCOC(=O)C1=C(C)NC(C)=C(C(=O)OC/C=C/c2ccccc2)C1c1cccc([N+](=O)[O-])c1 (centres unmarked) [PCM-0065102] | 59.9
41 | COc1cc(CCC(C)=O)ccc1O [PCM-0094824] | -0.8
42 | Cc1ccc(NC(=O)Nc2cc(-c3ccccc3-c3nn[nH]n3)ccc2N(CC(C)C)CC(C)C)cc1 [PCM-0215955] | 72.6
43 | Cc1onc(-c2ccccc2)c1C(=O)N[C@@H]1C(=O)N2[C@@H]1SC(C)(C)[C@@H]2C(=O)O [PCM-0215187] | 21.3
44 | COCCCOc1cc(C[C@@H](C[C@H](N)[C@@H](O)C[C@H](C(=O)NCC(C)(C)C(N)=O)C(C)C)C(C)C)ccc1OC [PCM-0214569] | 7
45 | CC(C)(O)[C@@H]1CC[C@](C)([C@H]2[C@@H](O)C[C@@]3(C)[C@@H]4C[C@H](O)[C@H]5C(C)(C)[C@@H](O)CC[C@@]56C[C@@]46CC[C@]23C)O1 [PCM-0215101] | -6.9
46 | Cc1noc(-c2ccc(CSCCC(=O)O)cc2)c1NC(=O)OC(C)c1ccccc1Cl (centres unmarked) [PCM-0094905] | -21
47 | CC(C)(C)c1cc(O)c(C(C)(C)C)cc1O [PCM-0214931] | 26.5
48 | CC1=CC(=O)CC(C)(C)C1=O [PCM-0215085] | 7.8
49 | N=c1ccn2c(n1)O[C@H]1[C@H](O)[C@@H](CO)O[C@H]12 [PCM-0094879] | 6.2
50 | O=c1cc(-c2ccccc2)oc2c1ccc1ccccc12 [PCM-0216134] | -0.8
51 | CC(C)[C@H](NC(=O)OCc1ccccc1)C(=O)N[C@@H](C)C(=O)N[C@@H](CC(=O)O)C(=O)CF [PCM-0215591] (Cbz-Val-Ala-Asp-CH2F) | -5.4
52 | COc1cccc(-c2ccc(NC(=O)C3=C(C(=O)O)CCC3)c(F)c2)c1 [PCM-0215523] | -75.9
53 | OC[C@H]1OC(O)[C@H](O)[C@@H](O)[C@H]1O (some centres unmarked) [PCM-0215038] | -23.3
54 | CC1(C)CC[C@]2(C)CC[C@]3(C)C(=CC[C@@H]4[C@@]5(C)CC[C@@H](O)[C@](C)(C(=O)O)[C@@H]5CC[C@]43C)[C@@H]2C1 [PCM-0216570] | -6.9
55 | CC(C)N1CCN(Cc2cnc(-c3cc(-c4cccc5[nH]ccc45)cc4[nH]ncc34)o2)CC1 [PCM-0213407] | 51.7

Row | Compound | inhibition at 10 µM [%]
56 | CCCCC[C@H](O)/C=C/[C@H]1[C@H](O)CC(=O)[C@@H]1CCCCCCC(=O)O [PCM-0086285] | 6.9
57 | COc1cc(/C=C/C=O)ccc1O [PCM-0216477] | 1.5
58 | C[C@@H]1CCCC2=CC(=O)[C@@H]3[C@@H](C3(C)C)[C@]21C [PCM-0216523] | -8.5
59 | CC(C)NCC(O)c1ccc(O)c(O)c1 (centres unmarked) [PCM-0065609] | 7
60 | Oc1ccc(/C=C/c2cc(O)cc(O)c2)cc1 [PCM-0065629] | 23.3
61 | Cc1cc(C)c(Nc2ccnc(Nc3ccc(C#N)cc3)n2)c(C)c1 [PCM-0095398] | 7
62 | CCOCc1nc2c(N)nc3ccccc3c2n1CC(C)(C)O [PCM-0215576] | 15.2
63 | CO/N=C(\C(=O)N[C@@H]1C(=O)N2C(C(=O)[O-])=C(C[n+]3cccc4c3CCCC4)CS[C@H]12)c1csc(N)n1 [PCM-0216083] | 9.3
64 | C=C1C(=O)O[C@@H]2/C=C(\C)CC/C=C(\C)CC[C@@H]12 [PCM-0214614] | 46.7
65 | COc1ccc(-c2ccc3c(N4CCOC[C@@H]4C)nc(N4CCOC[C@@H]4C)nc3n2)cc1CO [PCM-0095110] | -8.3
66 | CN1CCN(CCCN2c3ccccc3Sc3ccc(C(F)(F)F)cc32)CC1 [PCM-0064852] | -4.7
67 | CC(C)=CCCC(C)CCO (centres unmarked) [PCM-0216208] | -7.7
68 | COC(=O)Nc1ccc(-c2nc(N3CCOCC3)c3cnn(C4CCN(C(=O)OC)CC4)c3n2)cc1 [PCM-0095038] | 18.6
69 | O=C(c1cccc(Br)c1)N1CCC(N2CCCC2)CC1 [PCM-0216085] | -17.8
70 | O=c1cc[nH]c(=S)[nH]1 [PCM-0090803] | 8.6
71 | CCc1nc(N)nc(N)c1-c1ccc(Cl)cc1 [PCM-0085830] | -13.2
72 | C=C(C)[C@@H]1CC[C@]2(C(=O)O)CC[C@]3(C)[C@H](CC[C@@H]4[C@@]5(C)CC[C@H](O[C@@H]6OC[C@H](O)[C@H](O)[C@H]6O[C@@H]6O[C@@H](C)[C@H](O)[C@@H](O)[C@H]6O)[C@@](C)(CO)[C@@H]5CC[C@]43C)[C@@H]12 [PCM-0216514] | 34
73 | CCCC[C@@H](C=O)NC(=O)[C@H](CC(C)C)NC(=O)[C@H](CC(C)C)NC(C)=O [PCM-0215374] (Ac-Leu-Leu-[Nle]-aldehyde) | 18.5
74 | COc1cc(C(=O)NC2CCCNC2)cc(OC)c1OC (centres unmarked) [PCM-0214753] | -3.1
75 | CCN(CC)C[C@@H](O)CNc1ccc(NC[C@H]2CO2)c2c1C(=O)c1ccccc1C2=O [PCM-0215722] | 57.9
76 | Clc1ccc(C(Cn2ccnc2)OCc2c(Cl)cccc2Cl)c(Cl)c1 (centres unmarked) [PCM-0085849] | 38.9
77 | Cn1c(-c2ccccc2C(F)(F)F)nnc1C12CCC(c3noc(C4CC(F)(F)C4)n3)(CC1)CC2 [PCM-0215687] | -17
78 | CC(CNC(=O)c1cccnc1)NC(=O)c1cccnc1 (centres unmarked) [PCM-0214789] | -8.6
79 | CC(=O)Nc1ccc(C(=O)Nc2ccccc2N)cc1 [PCM-0095432] | -17.1
80 | COc1cc(Nc2ncc3c(n2)-c2ccc(Cl)cc2C(c2c(F)cccc2OC)=NC3)ccc1C(=O)O [PCM-0094940] | 83.4
